# Several values for one entry are separate records, joined by “and”; a condition that tells them apart may be missing. Equal entries are not always repeated.
# Key:
# AML cells [1] = assay: Cytotoxic and cytostatic impact of drugs on cultured AML patient cells (Example 17, Arm #2); format: cell-based, human; settings: patient #1910-017, 48 hours
# Experimental: This study used peripheral blood or bone marrow samples (n=9), which had been previously ficoll separated and cryopreserved. […] One cryovial per patient was used. Samples were thawed and centrifuged over ficoll to remove dead cells and debris. […] After 2 days the cells were then distributed into wells containing various drugs, wherein the cells were cultured for 48 hours. The cultures were fixed, permeabilized, and stained with a cocktail of antibodies to measure complete cell death, apoptosis, S/G2 phase, M-Phase, and DNA damage. These readouts were also obstained from samples cultured separately with individual growth factors (no drugs) for 4 days.
# PBMCs [2] = format: cell-based, human; settings: PBMC, 24 hours
# [3] = system: peripheral blood mononuclear cells (PBMC); assay: SCNP assay of SAg-modulated PBMC signaling over time, with or without cytokine pathway inhibitors (Examples 10, 11, 13); format: cell-based, human
# monocytes in PBMC = assay: Flow cytometry of intracellular cytokines in SAg-modulated PBMC with inhibitors (Example 12); format: cell-based, human
# PBMCs [4] = assay: SCNP signaling in LPS-treated PBMCs with inhibitors (Example 14, FIGS. 22, 23); settings: LPS plus inhibitor
# PBMCs [5] = system: PBMCs
# PBMCs [6] = assay: SCNP intracellular signaling readouts in PBMCs treated 24 hours with modulator (SAg or LPS) plus inhibitor (Example 9, FIGS. 18-21); format: cell-based, human
# whole blood = assay: SCNP of cytokine-induced JAK/STAT signaling in whole blood of healthy donors (Example 4); format: cell-based, human
# Experimental: Method: Whole blood from 11 healthy donors (20-65 yrs, 7 males, 4 females, 8 Caucasians, 2 Hispanics, 1 East Asian) was stimulated at 37° C. in 96-well plates with a low, medium, and high dose of GM-CSF, IFN-α, IL-27 and IL-6, each added separately, as described in Example 5. For each dose, a stimulation time course was run with 6 time points between 3 and 45 minutes. […] The SCNP assay was performed using a fluorophore-labeled antibody cocktail to simultaneously measure signaling in six distinct cell populations, including: neutrophils, CD20+ B cells, CD3+CD4+T cells, CD3+CD4− T cells (CD8 enriched), CD3-CD20-lymphocytes (NK cell enriched), and CD14+ monocytes. The median fluorescent intensity of phospho (p)-STAT1(Y701), p-STAT3(Y705), and p-STAT5(Y694) were measured in each defined cell population for each experimental condition.
# PBMCs [7] = assay: SCNP of IFN-α signaling in PBMCs from healthy donors (Examples 5 and 15); format: cell-based, human
# Experimental: (§1) Methods: IFN-α-mediated signaling responses were measured by SCNP in PBMC samples from 12 healthy donors. PBMCs were processed for flow cytometry by fixation and permeabilization followed by incubation with fluorochrome-conjugated antibodies that recognize extracellular lineage markers and intracellular signaling molecules. The levels of several phospho-proteins (p-Stat1, p-Stat3, p-Stat4, p-Stat5, p-Stat6, and p-p38) were measured in multiple cell populations (CD14+ monocytes, CD20+ B cells, CD4+ CD3+ T cells, and CD4− CD3+ T cells) at 15 minutes, 1, 2 and 4 hours post IFN-α exposure as described in Example 6.
# as §1, with “IFN-α-mediated” for “Methods: IFN-α-mediated”
# PBMCs [8] = assay: SCNP of immunomodulator signaling nodes in PBMC subpopulations of 60 healthy donors (Example 16); format: cell-based, human; settings: 15 min
# Experimental: Cryopreserved PBMC samples were thawed at 37° C. and resuspended in RPMI 1% FBS before staining with amine aqua viability dye (Invitrogen, Carlsbad, Calif.). Cells were resuspended in RPMI 10% FBS, aliquoted to 100,000 cells per well of 96-well plates, and rested for 2 h at 37° C. prior to 15 min 37° C. incubation with the following modulators: 1000 IU/ml IFNα (PBL, Piscataqay, N.J.); 250 ng/ml IFNγ, 50 ng/ml IL4, 50 ng/ml IL10, α-IgD 5 m/ml (BD, San Jose, Calif.); 50 ng/ml IL2, 50 ng/ml IL6, 50 ng/ml IL27, CD40L 0.5 μg/ml (R&D, Minneapolis, Minn.); R848 5 μg/ml (Invivogen, San Diego, Calif.); LPS 1 μg/ml, PMA 40 nM (Sigma Aldrich, St. Louis, Mo.). After exposure to modulators, cells were fixed with paraformaldehyde and permeabilized with 100% ice-cold methanol as previously described (5). […]
# Flow cytometry data was acquired using FACS DIVA software (BD, San Jose, Calif.) on two LSRII Flow Cytometers (BD, San Jose, Calif.). All flow cytometry data were analyzed with WinList (Verity House Software, Topsham, Me.). […]
# Two different metrics are utilized in this study to measure the levels of intracellular signaling proteins in either the unmodulated state or in response to modulation. […] The Equivalent Number of Reference Fluorophores (ERFs), fluorescence measurements calibrated by rainbow calibration particles on each 96-well plate, serve as a basis for all metric calculations (6, 7).
# AML cells [9] = assay: SCNP of basal and growth-factor modulated signaling in AML patient sample with kinase inhibitors (Example 17, Arm #1); format: cell-based, human; settings: patient #1910-017
# Text: This study used peripheral blood or bone marrow samples (n=9), which had been previously ficoll separated and cryopreserved. Patient characteristics are shown Table 8. One cryovial per patient was used. Samples were thawed and centrifuged over ficoll to remove dead cells and debris.
# Samples were split to perform the following: Arm #1 assessed basal and modulated signaling in the JAK/STAT, PI3K/mTor, and MEK/ERK pathways in the presence and absence of specific kinase inhibitors. Kinase inhibitors were added 1 hr before the addition of the signaling stimulus. Signaling was induced by individual addition of stem cell factor, Flt3 ligand, G-CSF, IL-3, or thrombopoietin (TPO) for a short period of time (5-15 min). Cells were then fixed, permeabilized, and stained with a cocktail of cell surface and phospho-specific antibodies to measure signaling in multiple cell types. Signaling data is calculated in each cell type using a fold-change metric comparing each condition to its basal state: example: (stimulated^+/−inhibitor)/(unstimulated). Also, cells with an apoptotic phenotype were excluded from the signaling analysis by gating.
molecule,measurement,setting,value
Nc1ccn([C@@H]2O[C@H](CO)[C@@H](O)[C@@H]2O)c(=O)n1 [AraC],drug induced apoptosis of myeloid cells,AML cells [1],resisted apoptosis
C[C@@H]1CCN(C(=O)CC#N)C[C@@H]1N(C)c1ncnc2[nH]ccc12 [Tofacitinib],B cell IL-6 production,PBMCs [2]; SAg plus inhibitor,blocked
same,T cell cytokine production (IL-2 and TNF by CD4+ cells),PBMCs [2]; SAg plus inhibitor,blocked
same,IL-6 production by monocytes,PBMCs [2]; inhibitor added,induced
same,TNFα production,"PBMCs [2]; monocytes, LPS plus inhibitor",blocked
same,PI3K pathway activation in lymphocytes,[3],blocked
same,STAT induction evoked by SAg modulation,[3],completely abrogated
same,overall inhibition of SAg-evoked signaling,[3],broad and potent inhibition of the JAK/STAT pathway and down-stream signaling
same,p-STAT5 and PI3K pathway signaling in CD4+ T cells,[3],this inhibition pattern extended to CD4+ T cells
same,p-STAT5 and PI3K pathway signaling in CD4− T cells,[3],inhibited
same,p-STAT levels in CD4− T cells,[3],restored p-STAT levels to the unmodulated condition
same,phosphorylation of STAT1 and STAT5,[3],weakly reduced
same,IL-6 in monocytes at other time points,monocytes in PBMC,induced IL-6 at the 2 hour and 24 hour time points
same,frequency of monocytes expressing TNFα,monocytes in PBMC,46%
same,monocytes expressing IL-6 (IL-6+),monocytes in PBMC,44%
same,p-STAT1 and p-STAT3 induction in lymphocytes,PBMCs [4]; 2 hours,completed abrogated
same,p-STAT3 in lymphocytes,PBMCs [4]; later time points,partially inhibited
same,inhibition,PBMCs [5],102% and 79%
same,STAT signaling / STAT phosphorylation,"PBMCs [6]; LPS modulation, FIG. 21",inhibited
same,all measured signaling,"PBMCs [6]; SAg modulation, FIG. 19",inhibited all signaling except for monocyte p-STAT6
same,lymphocyte signaling,"PBMCs [6]; SAg modulation, FIG. 20",inhibited
IFN-α,time of peak activation of all 3 STAT proteins,whole blood; all cell subsets,10 min
same,"peak response for activation of p-Stat4, p-Stat6, and p-p38",PBMCs [7]; majority of cell types tested,1 h
same,"peak response for activation of p-Stat1, p-Stat3, and p-Stat5",PBMCs [7]; most of the cell types,15 min
same,pStat activation across immune cell subpopulations,PBMCs [8]; 1000 IU/ml,at least one pStat protein was activated in response to IFNα in all of the immune cell subpopulations
Cn1c(=O)n(-c2ccc(C(C)(C)C#N)cc2)c2c3cc(-c4cnc5ccccc5c4)ccc3ncc21 [BEZ235],SCF induced pAKT,AML cells [9],complete inhibition
same,SCF induced pS6,AML cells [9],partial inhibition
CC(C)C[C@H](NC(=O)[C@H](Cc1ccccc1)NC(=O)c1cnccn1)B(O)O [bortezomib],cell death and cytostasis,AML cells [1],induced considerable levels of cell death and cytostasis
IL-6: cytokine used as modulator,time of peak p-STAT1 and p-STAT5,whole blood; CD4+ T cells and monocytes,10 to 15 min
same,time of peak p-STAT3 levels,whole blood; CD4+ T cells and monocytes,3 min
C[C@@H]1CCN(C(=O)CC#N)C[C@@H]1N(C)c1ncnc2[nH]ccc12 [CP-690550],IL-3 signaling,AML cells [9],complete inhibition
same,TPO signaling,AML cells [9],partial inhibition
same,high basal level of p-STAT5 signaling,AML cells [9],inhibited
CS(=O)(=O)N1CCN(Cc2cc3nc(-c4cccc5[nH]ncc45)nc(N4CCOCC4)c3s2)CC1 [GDC-0941],SCF induced pAKT,AML cells [9],partial inhibition
same,SCF induced pS6,AML cells [9],partial inhibition
Cn1cnc2c(F)c(Nc3ccc(Br)cc3Cl)c(C(=O)NOCCO)cc21 [AZD-6244],SCF induced pAKT,AML cells [9],no inhibition
same,SCF induced pS6,AML cells [9],partial inhibition
same,SCF-pERK,AML cells [9],complete inhibition
"IL-27: cytokine used as modulator (protein, UniProt Q8NEV9 29-243; Q14213 21-229, looked up) Interleukin-27 subunit alpha: FPRPPGRPQLSLQELRREFTVSLHLARKLLSEVRGQAHRFAESHLPGVNLYLLPLGEQLPDVSLTFQAWRRLSDPERLCFISTTLQPFHALLGGLGTQGRWTNMERMQLWAMRLDLRDLQRHLRFQVLAAGFNLPEEEEEEEEEEEEERKGLLPGALGSALQGPAQVSWPQLLSTYRLLHSLELVLSRAVRELLLLSKAGHSVWPLGFPTLSPQP Interleukin-27 subunit beta: RKGPPAALTLPRVQCRASRYPIAVDCSWTLPPAPNSTSPVSFIATYRLGMAARGHSWPCLQQTPTSTSCTITDVQLFSMAPYVLNVTAVHPWGSSSSFVPFITEHIIKPDPPEGVRLSPLAERQLQVQWEPPGSWPFPEIFSLKYWIRYKRQGAARFHRVGPIEATSFILRAVRPRARYYVQVAAQDLTDYGELSDWSLPATATMSLGK",time of peak activation of p-STAT1 and p-STAT3,"whole blood; T cell subsets, B cells, and monocytes",30 min
"IFNγ: cytokine used as modulator (protein, UniProt P01579 24-161, looked up) Interferon gamma: QDPYVKEAENLKKYFNAGHSDVADNGTLFLGILKNWKEESDRKIMQSQIVSFYFKLFKNFKDDQSIQKSVETIKEDMNVKFFNSNKKKRDDFEKLTNYSVTDLNVQRKAIHELIQVMAELSPAAKTGKRKRSQMLFRG",pStat1 level by cell type,PBMCs [8]; 250 ng/ml,"produced the highest level of pStat1 in monocytes, lower levels in B cells, and a much weaker pStat1 response in T cells"

# Reference: patent publication US9459246B2, “Induced intercellular communication” (Nodality, Inc., priority 2009, dated 2016)
